Measured values published in patent US20100286145A1, “ISOPHTHALAMIDE DERIVATIVES INHIBITING BETA-SECRETASE ACTIVITY” (CoMentis, Inc., priority 2007, published 2010).
Where two headings read alike, the source gives them in different places.

Tests used:
[1] = target: memapsin 2 (Homo sapiens, UniProt P56817); test: Inhibition of memapsin 2 beta-secretase activity (fluorogenic substrate FS-2); assay type: biochemical; conditions: memapsin 2, pH 4, 37° C., read-out: M2Ki
How it was run: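 Kinetic fluorogenic assay: hydrolysis of the MCA/DNP-labelled APP Swedish-variant peptide FS-2 monitored as fluorescence rise at 37° C, pH 4, after 20 min enzyme–compound preincubation. Relative rates fitted with a tight-binding inhibitor model.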

[2] = tested on: Aβ production in Chinese hamster ovary cells that over-express human APP695 with the London and Swedish mutations; test: Cellular Aβ IC50 determination (Aβ40 sandwich ELISA); assay type: cell-based; conditions: Cricetulus griseus; cellular Aβ production; read-out: IC50
How it was run: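 Aβ40 in media quantified by sandwich ELISA, normalized to control incubations and fitted with a 4-parameter IC50 model. Compounds dosed to a final concentration near 4 μM (0.4% DMSO) on CHO cells expressing human APP695 (London and Swedish mutants) seeded at 10% confluency.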

Sequence of memapsin 2 (P56817 46-501): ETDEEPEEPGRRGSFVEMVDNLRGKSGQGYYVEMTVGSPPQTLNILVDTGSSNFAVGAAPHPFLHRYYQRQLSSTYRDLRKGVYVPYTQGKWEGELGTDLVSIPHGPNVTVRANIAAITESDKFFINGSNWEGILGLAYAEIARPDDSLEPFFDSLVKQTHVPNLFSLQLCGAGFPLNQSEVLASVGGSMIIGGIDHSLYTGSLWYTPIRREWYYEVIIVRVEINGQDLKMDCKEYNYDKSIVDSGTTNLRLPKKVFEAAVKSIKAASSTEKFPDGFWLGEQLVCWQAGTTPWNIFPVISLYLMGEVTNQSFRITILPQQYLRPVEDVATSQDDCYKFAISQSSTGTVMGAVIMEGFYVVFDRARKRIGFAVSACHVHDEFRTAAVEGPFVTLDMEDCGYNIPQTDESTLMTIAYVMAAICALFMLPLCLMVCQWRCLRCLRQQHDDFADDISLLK

| Compound | Ki ([1]; 20 minutes pre-incubation) | IC50 [2] | Ki ([1]; fluorogenic substrate FS-2) |
| --- | --- | --- | --- |
| Cc1csc(CN(C)C(=O)c2cccc(C(=O)N[C@@H](Cc3ccccc3)[C@H](O)CNCc3cc(C(C)(C)C)ccc3O)c2)n1 [Compound 111, N1-((2S,3R)-4-(5-tert-butyl-2-hydroxybenzylamino)-3-hydroxy-1-phenylbutan-2-yl)-N3-methyl-N3-((4-methylthiazol-2-yl)methyl)isophthalamide] | < 0.3 µM | < 1 µM | – |
| CNC(=O)c1cc(C(=O)N[C@@H](Cc2ccccc2)[C@H](O)CNCc2cccc(OC)c2)cc(C(=O)N(C)Cc2nc(C)cs2)c1 [Compound 98, N1-((2S,3R)-3-hydroxy-4-(3-methoxybenzylamino)-1-phenylbutan-2-yl)-N3,N5-dimethyl-N3-((4-methylthiazol-2-yl)methyl)benzene-1,3,5-tricarboxamide] | < 0.3 µM | 1 to 5 µM | – |
| COc1cccc(CNC[C@@H](O)[C@H](Cc2ccccc2)NC(=O)c2cc(C(=O)O)cc(C(=O)N(C)Cc3nc(C)cs3)c2)c1 [Compound 19, 3-((2S,3R)-3-hydroxy-4-(3-methoxybenzylamino)-1-phenylbutan-2-ylcarbamoyl)-5-(methyl((4-methylthiazol-2-yl)methyl)carbamoyl)benzoic acid] | < 0.3 µM | < 1 µM | – |
| Cc1csc(CN(C)C(=O)c2cccc(C(=O)N[C@@H](Cc3ccccc3)[C@H](O)CNCc3cc(C(C)C)cc(N(C)C(=O)OCc4ccccc4)c3)c2)n1 [Compound 130, benzyl 3-(((2R,3S)-2-hydroxy-3-(3-(methyl((4-methylthiazol-2-yl)methyl)carbamoyl)benzamido)-4-phenylbutylamino)methyl)-5-isopropylphenyl(methyl)carbamate] | 0.301 to 0.5 µM | > 5 µM | – |
| Cc1csc(CN(C)C(=O)c2cccc(C(=O)N[C@@H](Cc3ccccc3)[C@H](O)CNCc3cc(-c4ccccc4)on3)c2)n1 [Compound 196, N1-((2S,3R)-3-hydroxy-1-phenyl-4-((5-phenylisoxazol-3-yl)methylamino)butan-2-yl)-N3-methyl-N3-((4-methylthiazol-2-yl)methyl)isophthalamide] | < 0.3 µM | < 1 µM | – |
| COc1cccc(CNC[C@@H](O)[C@H](Cc2ccccc2)NC(=O)c2cc(C(=O)N(C)Cc3nc(C)cs3)cc(N3CCC(O)C3)c2)c1 (stereo partly drawn) [Compound 241, N1-((2S,3R)-3-hydroxy-4-(3-methoxybenzylamino)-1-phenylbutan-2-yl)-5-(3-hydroxypyrrolidin-1-yl)-N3-methyl-N3-((4-methylthiazol-2-yl)methyl)isophthalamide] | – | 1 to 5 µM | < 0.3 µM |
| Cc1csc(CN(C)C(=O)c2cc(C(=O)N[C@@H](Cc3ccccc3)[C@H](O)CNCc3cncc(C(C)C)c3)cc(N(C)C)c2)n1 [Compound 162, 5-(dimethylamino)-N1-((2S,3R)-3-hydroxy-4-((5-isopropylpyridin-3-yl)methylamino)-1-phenylbutan-2-yl)-N3-methyl-N3-((4-methylthiazol-2-yl)methyl)isophthalamide] | < 0.3 µM | < 1 µM | – |
| COc1cccc(CNC[C@@H](O)[C@H](Cc2ccccc2)NC(=O)c2cc(CN=[N+]=[N-])cc(C(=O)N(C)Cc3nc(C)cs3)c2)c1 [Compound 121, 5-(azidomethyl)-N1-((2S,3R)-3-hydroxy-4-(3-methoxybenzylamino)-1-phenylbutan-2-yl)-N3-methyl-N3-((4-methylthiazol-2-yl)methyl)isophthalamide] | < 0.3 µM | < 1 µM | – |
| COc1cccc(CNC[C@@H](O)[C@H](Cc2ccccc2)NC(=O)c2cc(NO)cc(C(=O)N(C)Cc3nc(C)cs3)c2)c1 [Compound 117, N1-((2S,3R)-3-hydroxy-4-(3-methoxybenzylamino)-1-phenylbutan-2-yl)-5-(hydroxyamino)-N3-methyl-N3-((4-methylthiazol-2-yl)methyl)isophthalamide] | < 0.3 µM | < 1 µM | – |
| CNc1nc(CNC[C@@H](O)[C@H](Cc2ccccc2)NC(=O)c2cccc(C(=O)N(C)Cc3nc(C)cs3)c2)cc(C(C)C)n1 [Compound 161, N1-((2S,3R)-3-hydroxy-4-((6-isopropyl-2-(methylamino)pyrimidin-4-yl)methylamino)-1-phenylbutan-2-yl)-N3-methyl-N3-((4-methylthiazol-2-yl)methyl)isophthalamide] | < 0.3 µM | < 1 µM | – |
| Cc1csc(CN(C)C(=O)c2cccc(C(=O)N[C@@H](Cc3ccccc3)[C@H](O)CNCc3cncc(C#N)c3)c2)n1 [Compound 171, N1-((2S,3R)-4-((5-cyanopyridin-3-yl)methylamino)-3-hydroxy-1-phenylbutan-2-yl)-N3-methyl-N3-((4-methylthiazol-2-yl)methyl)isophthalamide] | 0.301 to 0.5 µM | 1 to 5 µM | – |
| Cc1csc(CN(C)C(=O)c2cccc(C(=O)N[C@@H](Cc3ccccc3)[C@H](O)CNCc3cc(C(C)C)cc(S(C)(=O)=O)c3)c2)n1 [Compound 150, N1-((2S,3R)-3-hydroxy-4-(3-isopropyl-5-(methylsulfonyl)benzylamino)-1-phenylbutan-2-yl)-N3-methyl-N3-((4-methylthiazol-2-yl)methyl)isophthalamide] | < 0.3 µM | < 1 µM | – |
| Cc1csc(CN(C)C(=O)c2cccc(C(=O)N[C@@H](Cc3ccccc3)[C@H](O)CNCc3cc(Br)cc(C(F)(F)F)c3)c2)n1 [Compound 265, N1-((2S,3R)-4-(3-bromo-5-(trifluoromethyl)benzylamino)-3-hydroxy-1-phenylbutan-2-yl)-N3-methyl-N3-((4-methylthiazol-2-yl)methyl)isophthalamide] | – | < 1 µM | < 0.3 µM |
| COc1cccc(CNC[C@@H](O)[C@H](Cc2ccccc2)NC(=O)c2cc(C(=O)N(C)Cc3nc(C)cs3)cc(-c3ccccn3)c2)c1 [Compound 174, N1-((2S,3R)-3-hydroxy-4-(3-methoxybenzylamino)-1-phenylbutan-2-yl)-N3-methyl-N3-((4-methylthiazol-2-yl)methyl)-5-(pyridin-2-yl)isophthalamide] | < 0.3 µM | < 1 µM | – |
| Cc1csc(CN(C)C(=O)c2cccc(C(=O)N[C@@H](Cc3ccccc3)[C@H](O)CN[C@@H](C)c3cncc(C(C)C)c3)c2)n1 [Compound 182, N1-((2S,3R)-3-hydroxy-4-((S)-1-(5-isopropylpyridin-3-yl)ethylamino)-1-phenylbutan-2-yl)-N3-methyl-N3-((4-methylthiazol-2-yl)methyl)isophthalamide] | < 0.3 µM | < 1 µM | – |
| Cc1csc(CN(C)C(=O)c2cc(C(=O)N[C@@H](Cc3ccccc3)[C@H](O)CNCc3cc(C(C)C)nc(N)n3)cc(-c3ncco3)c2)n1 [Compound 177, N1-((2S,3R)-4-((2-amino-6-isopropylpyrimidin-4-yl)methylamino)-3-hydroxy-1-phenylbutan-2-yl)-N3-methyl-N3-((4-methylthiazol-2-yl)methyl)-5-(oxazol-2-yl)isophthalamide] | < 0.3 µM | < 1 µM | – |
| COc1cccc(CNC[C@@H](O)[C@H](Cc2ccccc2)NC(=O)c2cc(N)cc(C(=O)N(C)Cc3nc(C)cs3)c2)c1 [Compound 34, 5-amino-N1-((2S,3R)-3-hydroxy-4-(3-methoxybenzylamino)-1-phenylbutan-2-yl)-N3-methyl-N3-((4-methylthiazol-2-yl)methyl)isophthalamide] | > 0.501 µM | 1 to 5 µM | – |
| COc1cc(CNC[C@@H](O)[C@H](Cc2ccccc2)NC(=O)c2cccc(C(=O)N(C)Cc3nc(C)cs3)c2)nc(N)n1 [Compound 207, N1-((2S,3R)-4-((2-amino-6-methoxypyrimidin-4-yl)methylamino)-3-hydroxy-1-phenylbutan-2-yl)-N3-methyl-N3-((4-methylthiazol-2-yl)methyl)isophthalamide] | 0.301 to 0.5 µM | > 5 µM | – |
| Cc1csc(CN(C)C(=O)c2ccc(C)c(C(=O)N[C@@H](Cc3ccccc3)[C@H](O)CNCc3cncc(C(C)C)c3)c2)n1 [Compound 249, N3-((2S,3R)-3-hydroxy-4-((5-isopropylpyridin-3-yl)methylamino)-1-phenylbutan-2-yl)-N1,4-dimethyl-N1-((4-methylthiazol-2-yl)methyl)isophthalamide] | – | > 5 µM | > 0.501 µM |
| C[C@@H](NC(=O)c1cc(C(=O)N[C@@H](Cc2ccccc2)[C@H](O)CNCc2cccc(C(C)(F)F)c2)cc(N(C)S(C)(=O)=O)c1)c1ccccc1 [Compound 144, N1-((2S,3R)-4-(3-(1,1-difluoroethyl)benzylamino)-3-hydroxy-1-phenylbutan-2-yl)-5-(N-methylmethylsulfonamido)-N3-((R)-1-phenylethyl)isophthalamide] | < 0.3 µM | < 1 µM | – |
| Cc1csc(CN(C)C(=O)c2cccc(C(=O)N[C@@H](Cc3ccccc3)[C@H](O)CNCc3cccc(C(C)(C)O)c3)c2)n1 [Compound 184, N1-((2S,3R)-3-hydroxy-4-(3-(2-hydroxypropan-2-yl)benzylamino)-1-phenylbutan-2-yl)-N3-methyl-N3-((4-methylthiazol-2-yl)methyl)isophthalamide] | < 0.3 µM | < 1 µM | – |
| Cc1csc(CN(C)C(=O)c2cccc(C(=O)N[C@@H](Cc3ccccc3)[C@H](O)CNCc3cc(OS(C)(=O)=O)cc(C(C)C)c3)c2)n1 [Compound 165, 3-(((2R,3S)-2-hydroxy-3-(3-(methyl((4-methylthiazol-2-yl)methyl)carbamoyl)benzamido)-4-phenylbutylamino)methyl)-5-isopropylphenyl methanesulfonate] | < 0.3 µM | < 1 µM | – |
| C[C@@H](NC(=O)c1cc(C(=O)N[C@@H](Cc2ccccc2)[C@H](O)CNCc2cccc(C(F)F)c2)cc(N(C)S(C)(=O)=O)c1)c1ccccc1 [Compound 142, N1-((2S,3R)-4-(3-(difluoromethyl)benzylamino)-3-hydroxy-1-phenylbutan-2-yl)-5-(N-methylmethylsulfonamido)-N3-((R)-1-phenylethyl)isophthalamide] | < 0.3 µM | < 1 µM | – |
